The values below come from US11161856B2 (H. Lundbeck A/S, priority 2017, dated 2021).

The target of one experiment is T1, MGLL (Mus musculus, UniProt O35678).
T1 construct: Brain; from tissue; host or cells: mouse brain proteome
T1 sequence (O35678 1-303): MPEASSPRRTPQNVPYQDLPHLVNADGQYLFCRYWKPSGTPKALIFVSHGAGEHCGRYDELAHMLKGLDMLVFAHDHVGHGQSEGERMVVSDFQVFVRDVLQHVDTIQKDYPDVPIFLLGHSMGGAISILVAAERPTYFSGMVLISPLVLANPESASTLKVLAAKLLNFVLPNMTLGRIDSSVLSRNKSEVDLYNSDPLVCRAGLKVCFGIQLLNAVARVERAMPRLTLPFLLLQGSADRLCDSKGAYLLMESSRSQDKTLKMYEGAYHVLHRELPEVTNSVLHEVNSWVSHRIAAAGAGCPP
Description: In vitro competitive activity-based protein profiling, mouse brain proteome (MGLL). The note with it: for % Inh MGLL Brain (Mouse, μM): concentration not given (μM). In kind it is biochemical.

Another experiment concerns the target T2, ABHD6 (Mus musculus, UniProt Q8R2Y0).
T2 construct: Brain; from tissue; host or cells: mouse brain proteome
T2 sequence (Q8R2Y0 1-336): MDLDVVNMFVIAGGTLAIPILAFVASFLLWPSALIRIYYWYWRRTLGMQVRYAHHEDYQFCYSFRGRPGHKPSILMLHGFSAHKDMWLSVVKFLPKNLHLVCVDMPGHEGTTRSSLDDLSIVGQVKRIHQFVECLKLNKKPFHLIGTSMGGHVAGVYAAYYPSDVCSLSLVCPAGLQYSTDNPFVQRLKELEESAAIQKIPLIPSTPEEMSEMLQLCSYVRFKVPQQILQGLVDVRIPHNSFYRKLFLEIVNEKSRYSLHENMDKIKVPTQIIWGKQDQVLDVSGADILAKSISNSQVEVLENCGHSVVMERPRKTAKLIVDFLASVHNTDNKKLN
Description: In vitro competitive activity-based protein profiling, mouse brain proteome (ABHD6). Type of experiment: biochemical. The note with it: mouse brain proteome; concentration not given (μM). As to the method: [The source words this procedure for another target and reports this target under the same test.] In Vitro Competitive Activity-Based Protein Profiling.
Proteomes (human prefrontal cortex or cell membrane fractions) (50 μL, 1.0 mg/mL total protein concentration) were preincubated with varying concentrations of inhibitors at 37° C. After 30 min, FP-Rh or HT-01 (1.0 μL, 50 μM in DMSO) was added and the mixture was incubated for another 30 min at room temperature. Reactions were quenched with SDS loading buffer (15 μL-4×) and run on SDS-PAGE.

The structures appear in SMILES notation.

For `CC(=O)N1CCCc2cccc(CN3CCC4(CC3)CCN(C(=O)OC(C(F)(F)F)C(F)(F)F)C4)c21` [Example 193, 1,1,1,3,3,3-Hexafluoropropan-2-yl 8-((1-acetyl-1,2,3,4-tetrahydroquinolin-8-yl)methyl)-2,8-diazaspiro[4.5]decane-2-carboxylate], the “% Inh MGLL Brain (Mouse, μM)” value at MGLL is “## (## is between 25 and 75%)”. The “% Inh ABHD6 Brain (Mouse, μM)” value at ABHD6 is listed as “# (# is ≤25%)”.

As for `Cc1cc(N2CCOCC2)ccc1CN1CCC2(CC1)CN(C(=O)OC(C(F)(F)F)C(F)(F)F)C2` [Example 71, 1,1,1,3,3,3-Hexafluoropropan-2-yl 7-(2-methyl-4-morpholinobenzyl)-2,7-diazaspiro[3.5]nonane-2-carboxylate], the “% Inh MGLL Brain (Mouse, μM)” value on MGLL was “### (### is ≥75%)”. Further, at ABHD6, the “% Inh ABHD6 Brain (Mouse, μM)” value was “### (### is ≥75%)”. For `O=C(OC(C(F)(F)F)C(F)(F)F)N1CC2(CCN(Cc3ccc(C(F)(F)F)cc3)CC2)C1` [Example 56, 1,1,1,3,3,3-Hexafluoropropan-2-yl 7-(4-(trifluoromethyl)benzyl)-2,7-diazaspiro[3.5]nonane-2-carboxylate], the “% Inh MGLL Brain (Mouse, μM)” value on MGLL was “## (## is between 25 and 75%)”. In addition, the “% Inh ABHD6 Brain (Mouse, μM)” value on ABHD6 is “### (### is ≥75%)”. Turning to `O=C(OC(C(F)(F)F)C(F)(F)F)N1CC2(CCN(Cc3ccc(Cl)c(Cl)c3)CC2)C1` [Example 55, 1,1,1,3,3,3-Hexafluoropropan-2-yl 7-(3,4-dichlorobenzyl)-2,7-diazaspiro[3,5]nonane-2-carboxylate], on MGLL, the “% Inh MGLL Brain (Mouse, μM)” value is “## (## is between 25 and 75%)”. Further, the “% Inh ABHD6 Brain (Mouse, μM)” value on ABHD6 is “### (### is ≥75%)”.

For `O=C(OC(C(F)(F)F)C(F)(F)F)N1CC2(CCN(Cc3ccc(Cl)cc3)CC2)C1` [Example 75, 1,1,1,3,3,3-Hexafluoropropan-2-yl 7-(4-chlorobenzyl)-2,7-diazaspiro[3.5]nonane-2-carboxylate], the “% Inh MGLL Brain (Mouse, μM)” value at MGLL is reported as “### (### is ≥75%)”. In addition, the “% Inh ABHD6 Brain (Mouse, μM)” value at ABHD6 is recorded as “### (### is ≥75%)”.

As to `O=C(OC(C(F)(F)F)C(F)(F)F)N1CCC2(CC1)CN(Cc1c(Cl)cccc1N1CCOCC1)C2` [Example 46, 1,1,1,3,3,3-Hexafluoropropan-2-yl 2-(2-chloro-6-morpholinobenzyl)-2,7-diazaspiro[3.5]nonane-7-carboxylate], the “% Inh MGLL Brain (Mouse, μM)” value at MGLL is “### (### is ≥75%)”. Also, the “% Inh ABHD6 Brain (Mouse, μM)” value on ABHD6 is reported as “### (### is ≥75%)”. As to `CC(=O)N1CC2CN(c3cc(Cl)ccc3CN3CCN(C(=O)OC(C(F)(F)F)C(F)(F)F)CC3)CC2C1` (centres unmarked) [Example 202, 1,1,1,3,3,3-Hexafluoropropan-2-yl 4-(2-(5-acetylhexahydropyrrolo[3,4-c]pyrrol-2(lH)-yl)-4-chlorobenzyl)piperazine-1 - carboxylate], at MGLL, the “% Inh MGLL Brain (Mouse, μM)” value is listed as “### (### is ≥75%)”. Besides, the “% Inh ABHD6 Brain (Mouse, μM)” value on ABHD6 was “## (## is between 25 and 75%)”. `O=C(OC(C(F)(F)F)C(F)(F)F)N1CCC2(CCN(Cc3ccc(C(F)(F)F)cc3N3CC4COCC4C3)CC2)C1` (centres unmarked) [Example 188, 1,1,1,3,3,3-Hexafluoropropan-2-yl 8-(2-(tetrahydro-1H-furo[3,4-c]pyrrol-5(3H)-yl)-4-(trifluoromethyl)benzyl)-2,8-diazaspiro[4.5]decane-2-carboxylate]: the “% Inh MGLL Brain (Mouse, μM)” value at MGLL was “### (### is ≥75%)”. Moreover, at ABHD6, the “% Inh ABHD6 Brain (Mouse, μM)” value is on record as “# (# is ≤25%)”. With `CS(=O)(=O)N1CCC2(CCN(c3cc(Cl)cc(CN4CCCC45CN(C(=O)OC(C(F)(F)F)C(F)(F)F)C5)c3)CC2)C1` [Example 232], the inhibition at 10 µM on MGLL (at 10 uM, read-out: % Inh MGLL Brain (Mouse)) was in the range of 25 to 75%. The “% Inh ABHD6 Brain (Mouse, μM)” value at ABHD6 is “### (### is ≥75%)”. For `CC(=O)N1CC2(CCN(c3ccccc3CN3CCC34CCN(C(=O)OC(C(F)(F)F)C(F)(F)F)CC4)C2)C1` [Example 228, 1,1,1,3,3,3-Hexafluoropropan-2-yl 1-(2-(2-acetyl-2,6-diazaspiro[3,4]octan-6-yl)benzyl)-1,7-diazaspiro[3.5]nonane-7-carboxylate], the “% Inh MGLL Brain (Mouse, μM)” value on MGLL is “### (### is ≥75%)”. In addition, the “% Inh ABHD6 Brain (Mouse, μM)” value on ABHD6 is on record as “# (# is ≤25%)”. In the same order, the values of `O=C(OC(C(F)(F)F)C(F)(F)F)N1CCC2(CC1)CN(Cc1ccc(CN3CCOCC3)cc1)C2` [Example 73, 1,1,1,3,3,3-Hexafluoropropan-2-yl 2-(4-(morpholinomethyl)benzyl)-2,7-diazaspiro[3.5]nonane-7-carboxylate] are “### (### is ≥75%)” and “### (### is ≥75%)”. In the same order, the values of `O=C(OC(C(F)(F)F)C(F)(F)F)N1CC2(CCN(Cc3ccc(Cl)cc3N3CCOCC3)CC2)C1` [Example 37, 1,1,1,3,3,3-Hexafluoropropan-2-yl 7-(4-chloro-2-morpholinobenzyl)-2,7-diazaspiro[3.5]nonane-2-carboxylate] are “### (### is ≥75%)” and “### (### is ≥75%)”. For the molecule `CS(=O)(=O)N1CCc2cccc(CN3CCC4(CC3)CCN(C(=O)OC(C(F)(F)F)C(F)(F)F)C4)c2C1` [Example 217, 1,1,1,3,3,3-Hexafluoropropan-2-yl 8-((2-(methylsulfonyl)-1,2,3,4-tetrahydroisoquinolin-8-yl)methyl)-2,8-diazaspiro[4.5]decane-2-carboxylate], the “% Inh MGLL Brain (Mouse, μM)” value at MGLL is reported as “### (### is ≥75%)”. Further, the “% Inh ABHD6 Brain (Mouse, μM)” value at ABHD6 was “### (### is ≥75%)”. With `CN1CCCC12CCN(c1cc(C(F)(F)F)ccc1CN1CCN(C(=O)OC(C(F)(F)F)C(F)(F)F)CC1)CC2` [Example 215, 1,1,1,3,3,3-Hexafluoropropan-2-yl 4-(2-(1-methyl-1,8-diazaspiro[4.5]decan-8-yl)-4-(trifluoromethyl)benzyl) piperazine-1-carboxylate], the “% Inh MGLL Brain (Mouse, μM)” value at MGLL is on record as “### (### is ≥75%)”. Further, the “% Inh ABHD6 Brain (Mouse, μM)” value on ABHD6 was “# (# is ≤25%)”.

With `CS(=O)(=O)N1CC2(CCN(c3cc(C(F)(F)F)ccc3CN3CCN(C(=O)OC(C(F)(F)F)C(F)(F)F)CC3)CC2)C1` [Example 211, 1,1,1,3,3,3-Hexafluoropropan-2-yl 4-(2-(2-(methylsulfonyl)-2,7-diazaspiro[3.5]nonan-7-yl)-4-(trifluoiomethyl)benzyl) piperazine-1-carboxylate], the “% Inh MGLL Brain (Mouse, μM)” value at MGLL is recorded as “### (### is ≥75%)”. In addition, the “% Inh ABHD6 Brain (Mouse, μM)” value on ABHD6 is “### (### is ≥75%)”.

With `O=C(OC(C(F)(F)F)C(F)(F)F)N1CCC2(CC1)CN(Cc1c(N3CCN(C4CC4)CC3)cccc1C(F)(F)F)C2` [Example 60, 1,1,1,3,3,3-Hexafluoropropan-2-yl 2-(2-(4-cyclopropylpiperazin-1-yl)-6-(trifluoromethyl)benzyl)-2,7-diazaspiro[3.5]nonane-7-carboxylate], on MGLL, the “% Inh MGLL Brain (Mouse, μM)” value was “### (### is ≥75%)”. In addition, the “% Inh ABHD6 Brain (Mouse, μM)” value at ABHD6 was “### (### is ≥75%)”.

For `CN1CCC2(CCN(c3cc(C(F)(F)F)ccc3CN3CCN(C(=O)OC(C(F)(F)F)C(F)(F)F)CC3)CC2)C1` [Example 182, 1,1,1,3,3,3-Hexafluoropropan-2-yl 4-(2-(2-methyl-2,8-diazaspiro[4.5]decan-8-yl)-4-(trifluoromethyl)benzyl) piperazine-1-carboxylate], at MGLL, the “% Inh MGLL Brain (Mouse, μM)” value is on record as “### (### is ≥75%)”. Besides, the “% Inh ABHD6 Brain (Mouse, μM)” value on ABHD6 is listed as “# (# is ≤25%)”.

As to `CC(=O)N1CCC2(CC1)CCN(c1cc(C(F)(F)F)ccc1CN1CCN(C(=O)OC(C(F)(F)F)C(F)(F)F)CC1)C2` [Example 197, 1.1.1,3,3.3-Hexafluoropropan-2-yl 4-(2-(8-acetyl-2,8-diazaspiro[4.5]decan-2-yl)-4-(trifluoromethyl)benzyl)pipera zine-l-carboxylate], the “% Inh MGLL Brain (Mouse, μM)” value at MGLL is recorded as “### (### is ≥75%)”. For the same molecule, the “% Inh ABHD6 Brain (Mouse, μM)” value at ABHD6 is given as “# (# is ≤25%)”. The matching figures for `O=C(OC(C(F)(F)F)C(F)(F)F)N1CCC2(CC1)CN(Cc1c(N3CCC4(CCOCC4)C3)cccc1C(F)(F)F)C2` [Example 52, 1,1,1,3,3,3-Hexafluoropropan-2-yl 2-(2-(8-oxa-2-azaspiro[4.5]decan-2-yl)-6-(trifluoromethyl)benzyl)-2,7-diazaspiro[3.5]nonane-7-carboxylate]: “### (### is ≥75%)” and “### (### is ≥75%)”. `O=C(OC(C(F)(F)F)C(F)(F)F)N1CCC2(CC1)CN(Cc1ccc(C(F)(F)F)cc1N1CCCCC1)C2` [Example 35]: the “% Inh MGLL Brain (Mouse, μM)” value on MGLL is listed as “### (### is ≥75%)”. Besides, the “% Inh ABHD6 Brain (Mouse, μM)” value at ABHD6 was “## (## is between 25 and 75%)”. Take `CCN1CCC2(CCN(c3cc(Cl)cc(CN4CCCC45CN(C(=O)OC(C(F)(F)F)C(F)(F)F)C5)c3)CC2)C1` [Example 235, 1,1,1,3,3,3-Hexafluoropropan-2-yl 5-(3-chloro-5-(2-ethyl-2,8-diazaspiro[4.5]decan-8-yl)benzyl)-2,5-diazaspiro[3.4]octane-2-carboxylate]: at ABHD6, the “% Inh ABHD6 Brain (Mouse, μM)” value was “### (### is ≥75%)”.
